Results on 19 molecules are retold here after ChEMBL document CHEMBL1149088, “A non-peptide NK1 receptor agonist showing subpicomolar affinity” (J Med Chem, 2004).

For assay [1], the target named is T1, Substance-P receptor (Homo sapiens, UniProt P25103). Briefly: Binding affinity against human Tachykinin receptor 1 expressed in astrocytoma UC11MG cells using [125I]- SP radioligand. The assay is classed as cell-based.
For assay [2], the target named is T1, Substance-P receptor. The settings on record: UC11MG.
Assay [3] concerns Endothelial cell. Briefly: Concentration required to produce maximum stimulation in tritiated inositol monophosphate (IP1) level in postcapillary endothelial cells isolated from bovine heart (CVEC). Type of assay: functional, cell-based. The following applies: Bos taurus.
Assay [4] deals with Endothelial cell. Briefly: Concentration required to produce cyclic GMP levels in postcapillary endothelial cells isolated from bovine heart (CVEC). The settings on record: Bos taurus. Type of assay: functional, cell-based.
Assay [5] concerns Endothelial cell. Briefly: Concentration required to produce maximum effect on postcapillary endothelial cells isolated from bovine heart (CVEC) proliferation. Type of assay: functional, cell-based. The following applies: Bos taurus.
Assay [6] addresses T1, Substance-P receptor. Briefly: Inhibition of labeled SP total binding against human Tachykinin receptor 1 expressed in astrocytoma UC11MG cells by the second binding component. The assay is classed as cell-based.

T1 sequence (P25103 whole entry): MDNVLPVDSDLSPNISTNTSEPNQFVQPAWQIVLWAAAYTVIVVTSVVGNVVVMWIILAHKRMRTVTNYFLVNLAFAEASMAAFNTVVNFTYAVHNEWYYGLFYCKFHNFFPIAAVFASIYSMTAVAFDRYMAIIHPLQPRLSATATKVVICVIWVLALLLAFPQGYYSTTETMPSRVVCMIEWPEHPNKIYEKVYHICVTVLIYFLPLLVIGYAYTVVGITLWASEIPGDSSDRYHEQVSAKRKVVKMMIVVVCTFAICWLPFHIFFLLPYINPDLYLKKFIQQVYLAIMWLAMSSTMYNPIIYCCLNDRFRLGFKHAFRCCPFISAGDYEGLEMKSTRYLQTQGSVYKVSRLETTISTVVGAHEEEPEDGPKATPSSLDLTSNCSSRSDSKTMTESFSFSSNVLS

Broadly, the IC50 is the concentration needed to halve the response being measured. A high value points to lower potency. Regarding `CC(C)(C)[Si](C)(C)OCc1nc2ccccc2c(-c2ccccc2)c1C(=O)NCc1cc(C(F)(F)F)cc(C(F)(F)F)c1`, on Substance-P receptor [1], the 50% inhibitory concentration (IC50) worked out at 17 nM. At Substance-P receptor [2], this molecule showed a Binding of 100%.
On Substance-P receptor [1], `O=C(NCc1cc(C(F)(F)F)cc(C(F)(F)F)c1)c1c(CBr)nc2ccccc2c1-c1ccccc1` came in with a half-inhibitory concentration (IC50) of 0.01 nM. The Binding at Substance-P receptor [2] came out at 71%.
On Substance-P receptor [2], `CN(Cc1cc(C(F)(F)F)cc(C(F)(F)F)c1)C(=O)c1c(CO)nc2ccccc2c1-c1ccccc1` returned a Binding of 75%.
As to `COCc1nc2ccccc2c(-c2ccccc2)c1C(=O)N(C)Cc1cc(C(F)(F)F)cc(C(F)(F)F)c1`, the IC50 at Substance-P receptor [1] was determined as 11 nM. This molecule also came in with a Binding at Substance-P receptor [2] of 100%.
`NCc1nc2ccccc2c(-c2ccccc2)c1C(=O)NCc1cc(C(F)(F)F)cc(C(F)(F)F)c1` came in with an IC50 on Substance-P receptor [1] of 0.0017 nM. The molecule further returned a Binding on Substance-P receptor [2] of 100%.
The matching figures for `CNCc1nc2ccccc2c(-c2ccccc2)c1C(=O)NCc1cc(C(F)(F)F)cc(C(F)(F)F)c1`: 0.011 nM and 82%.
The like results for `CN(Cc1cc(C(F)(F)F)cc(C(F)(F)F)c1)C(=O)c1c(CBr)nc2ccccc2c1-c1ccccc1` were, in that order, 52 nM and 100%.
The like results for `CN(Cc1ccccc1)Cc1nc2ccccc2c(-c2ccccc2)c1C(=O)NCc1cc(C(F)(F)F)cc(C(F)(F)F)c1` were, in that order, 180 nM and 71%.
Regarding `CN1CCN(Cc2nc3ccccc3c(-c3ccccc3)c2C(=O)NCc2cc(C(F)(F)F)cc(C(F)(F)F)c2)CC1`, the concentration for half-maximal inhibition (IC50) on Substance-P receptor [1] is more than 1000 nM.
As for `O=C(NCc1cc(C(F)(F)F)cc(C(F)(F)F)c1)c1c(CCl)nc2ccccc2c1-c1ccccc1`, the 50% inhibitory concentration (IC50) on Substance-P receptor [1] was determined as 26 nM. Moreover, the Binding on Substance-P receptor [2] was found to be 57%.
In turn, `Cc1nc2ccccc2c(-c2ccccc2)c1C(=O)N(C)Cc1cc(C(F)(F)F)cc(C(F)(F)F)c1` registered an IC50 at Substance-P receptor [1] of 3.1 nM. At Substance-P receptor [2], this molecule returned a Binding of 73%.
In turn, `Ic1ccccc1CN[C@@H]1C2CCN(CC2)[C@@H]1C(c1ccccc1)c1ccccc1` returned a 50% inhibitory concentration (IC50) on Substance-P receptor [1] of 1.6 nM. Also, the Binding on Substance-P receptor [2] was 100%.
`O=C(NCc1cc(C(F)(F)F)cc(C(F)(F)F)c1)c1cnc2ccccc2c1-c1ccccc1` returned an IC50 on Substance-P receptor [1] of more than 1000 nM.
Take `O=C(NCc1cc(C(F)(F)F)cc(C(F)(F)F)c1)c1c(CO)nc2ccccc2c1-c1ccccc1`: the values for the Concentration in the assay with Endothelial cell [3], in the assay on Endothelial cell [4] and in the assay on Endothelial cell [5] were 1000 nM, 100 nM and 0.1 nM, respectively. The half-inhibitory concentration (IC50) on Substance-P receptor [1] amounted to 0.0001 nM. Further, the Binding at Substance-P receptor [2] came out at 100%.
The molecule `CN(Cc1cc(C(F)(F)F)cc(C(F)(F)F)c1)C(=O)c1cnc2ccccc2c1-c1ccccc1` had an IC50 on Substance-P receptor [1] of 0.03 nM. This molecule showed a Binding on Substance-P receptor [2] of 83%.
`Cc1nc2ccccc2c(-c2ccccc2)c1C(=O)NCc1cc(C(F)(F)F)cc(C(F)(F)F)c1`: the concentration for half-maximal inhibition (IC50) on Substance-P receptor [1] was 0.075 nM; on Substance-P receptor [6] it was 3900 nM. Also, the Binding on Substance-P receptor [2] amounted to 78%.
The like results for `CN(C)Cc1nc2ccccc2c(-c2ccccc2)c1C(=O)NCc1cc(C(F)(F)F)cc(C(F)(F)F)c1` were, in that order, 0.22 nM, 11 nM and 40%.
Molecule `O=C(NCc1cc(C(F)(F)F)cc(C(F)(F)F)c1)c1c(CN2C(=O)c3ccccc3C2=O)nc2ccccc2c1-c1ccccc1` registered an IC50 at Substance-P receptor [1] of more than 1000 nM.
The molecule `CN(Cc1cc(C(F)(F)F)cc(C(F)(F)F)c1)C(=O)c1c(CN)nc2ccccc2c1-c1ccccc1` displayed an IC50 at Substance-P receptor [1] of 9 nM. In addition, the Binding on Substance-P receptor [2] is 100%.
